Laboratory results: patent US20220220152A1, “BIVALENT ANTAGONISTS OF INHIBITORS OF APOPTOSIS PROTEINS” (Hepagene Therapeutics (HK) Limited, priority 2019, published 2022)

Assays:
[1] = molecular target: T1, cIAP2-BIR3 (Homo sapiens, UniProt Q13489); experiment: cIAP2-BIR3 fluorescence polarization binding assay; details: FP, probe AbuRPFK-5FAM (SM5F) 5 nM, cIAP2-BIR3 80 nM, 60 min at 25° C.
T1 construct: cIAP2-BIR3; purchased Reaction Biology APT-11-372
From the text: (§1) IAPs are one main cause of cancer development and may result from overexpression of anti-apoptotic proteins. This protocol establishes three binding assays for […] Bir3 domain, cIAP1 and cIAP2 using FP (fluorescence polariation) technology. The fluorescence probe used is a synthetic peptide conjugated to 5-carboxyfluorescein (AbuRPFK-5FAM). The fluorescence polarization value (mP) was detected by Envision, which was used to reflect the binding degree of protein and fluorescent marker.
(§2) • a. Prepare 100 times of the final cpd concentration in appropriate tube and transfer 5 uL cpd to 45 μL 1× reaction buffer with 10% DMSO • b. The final reference cpd concentration is 10000, 3333.3, 1111.1, 370.4, 123.4, 41.2, 13.7, 4.57, 1.52, 0.51, 0.17 and 0 nM. So the 100 times of the concentration is 1000, 333.3, 111.1, 37.04, 12.34, 4.12, […], 0.15, 0.05, 0.017 and 0 μM. The final test cpds concentration is 3333.3, 1111.1, 370.4, 123.4, 41.2, 13.7, 4.57, 1.52, 0.51, 0.17, 0.057 and 0 nM. So the 100 times of the concentration is 333.3, 111.1, 37.04, 12.34, 4.12, […], 0.15, 0.05, 0.017, 0.0057 and […] • c. Add 8 μL/well each dose enzyme to 384 wen microplate (ProxiPlate-384 F Plus, 6008260) using multichannel pipette, prepared in Table 3. • d. Centrifuge at 1000 rpm • e. Add 2 μL/well cpd to 384 well microplate (ProxiPlate-384 F Plus, 6008260) using multichannel pipette, prepared in step a). • f. Centrifuge at 1000 rpm RT, 15 min. • g Start the assay by adding 10 uL/well substrate (prepared in Table 4) to the same 384 wen microplate using multichannel pipette. • h. Centrifuge at 1000 rpm. • i. Cover the assay plate and incubate for 60 min at 25° C. • j. Read on Envision 2104 for mP and plot the IC50s with mP values. • k. Data analysis: IC50s were determined based on a non-linear regression analysis of data collected.

[2] = molecular target: T2, XIAP-BIR3 (Homo sapiens, UniProt P98170); experiment: XIAP-BIR3 fluorescence polarization binding assay; details: FP, probe AbuRPFK-5FAM (SM5F) 5 nM, XIAP-BIR3 40 nM, 60 min at 25° C.
T2 construct: XIAP-BIR3; purchased Reaction Biology APT-11-374
T2 sequence (P98170 241-356 limits assumed): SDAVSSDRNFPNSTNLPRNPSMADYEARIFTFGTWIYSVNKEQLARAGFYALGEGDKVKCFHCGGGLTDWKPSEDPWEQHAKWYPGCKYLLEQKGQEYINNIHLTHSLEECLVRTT
From the text: as §1, §2

[3] = molecular target: T3, cIAP1-BIR3 (Homo sapiens, UniProt Q13490); experiment: cIAP1-BIR3 fluorescence polarization binding assay; details: FP, probe AbuRPFK-5FAM (SM5F) 5 nM, cIAP1-BIR3 15 nM, 60 min at 25° C.
T3 construct: cIAP1-BIR3; purchased Reaction Biology APT-11-370
T3 sequence (Q13490 253-363 limits assumed): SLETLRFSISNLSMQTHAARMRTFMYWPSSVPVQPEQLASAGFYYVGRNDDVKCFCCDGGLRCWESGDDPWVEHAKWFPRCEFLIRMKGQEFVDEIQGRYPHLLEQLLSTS
From the text: as §1, §2

T1 sequence (Q13489 238-349 limits assumed): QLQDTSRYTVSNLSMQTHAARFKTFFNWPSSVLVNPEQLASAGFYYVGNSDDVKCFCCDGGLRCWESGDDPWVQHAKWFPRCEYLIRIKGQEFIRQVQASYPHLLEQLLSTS

CN[C@@H](C)C(=O)N[C@H](C(=O)N1CCC[C@H]1C(=O)N[C@@H]1CCCc2c(-c3ccc(-c4cccc5c4CCC[C@H]5NC(=O)[C@@H]4CCCN4C(=O)[C@@H](NC(=O)[C@H](C)NC)C4CCCCC4)cc3)cccc21)C1CCCCC1 [Compound III, (2S)-1-[(2S)-2-Cyclohexyl-2-[(2S)-2-(methylamino)propanamido]acetyl]-N-[(1R)-5-[4-[(5R)-5-[(2S)-1-[(2S)-2-cyclohexyl-2-[(2S)-2-(methylamino)propanamido]acetyl]pyrrolidine-2-amido]-5,6,7,8-tetrahydronaphthalen-1-yl]phenyl]-1,2,3,4-tetrahydronaphthalen-1-yl]pyrrolidine-2-carboxamide]
IC50 [1]: 10 to 100 nM | IC50 [2]: 10 to 100 nM | IC50 [3]: 1 to 10 nM

CN[C@@H](C)C(=O)N[C@H](C(=O)N1CCC[C@H]1C(=O)N[C@@H]1CCCc2c(NC(=O)c3cccc4c3CCC[C@H]4NC(=O)[C@@H]3CCCN3C(=O)[C@@H](NC(=O)[C@H](C)NC)C3CCOCC3)cccc21)C1CCOCC1 [Compound VII-B, (2S)-1[(2S)-2-[(2S)-2-(methylamino)propanamido]-2-(oxan-4-yl)acetyl]-N-[(1R)-5-[[(5R)-5-[(2S)-1[(2S)-2-[(2S)-2-(methylamino)propanamido]-2-(oxan-4-yl)acetyl]pyrrolidine-2-amido]-5,6,7,8-tetrahydronaphthalen-1-yl]carbamoyl]-1,2,3,4-tetrahydronaphthalen-1-yl]pyrrolidine-2-carboxamide]
IC50 [1]: 10 to 100 nM | IC50 [2]: 10 to 100 nM | IC50 [3]: 1 to 10 nM

CN[C@@H](C)C(=O)N[C@H](C(=O)N1CCC[C@H]1C(=O)N[C@@H]1CCCc2c(-c3cccc4c3CCC[C@H]4NC(=O)[C@@H]3CCCN3C(=O)[C@@H](NC(=O)[C@H](C)NC)C3CCOCC3)cccc21)C1CCOCC1 [Compound V-K, (S)-1-((S)-2-((S)-2-(methylamino)propanamido)-2-(tetrahydro-2H-pyran-4-yl)acetyl)-N-((5R,5′R)-5′-((S)-1-((S)-2-((S)-2-(methylamino)propanamido)-2-(tetrahydro-2H-pyran-4-yl)acetyl)pyrrolidine-2-carboxamido)-5,5′,6,6′,7,7′,8,8′-octahydro-[1,1′-binaphthalen]-5-yl)pyrrolidine-2-carboxamide]
IC50 [1]: 10 to 100 nM | IC50 [2]: 10 to 100 nM | IC50 [3]: 1 to 10 nM

CN[C@@H](C)C(=O)N[C@H](C(=O)N1CCC[C@H]1C(=O)N[C@@H]1CCc2c(-c3cccc4c3CC[C@H]4NC(=O)[C@@H]3CCCN3C(=O)[C@@H](NC(=O)[C@H](C)NC)C3CCCCC3)cccc21)C1CCCCC1 [Compound V, (2S)-1-[(2S)-2-cyclohexyl-2-[(2S)-2-(methylamino)propanamido]acetyl]-N-[(1R,1′R)-1′-[(2S)-1-[(2S)-2-cyclohexyl-2-[(2S)-2-(methylamino)propanamido]acetyl]pyrrolidine-2-amido]-1H,1′H,2H,2′H,3H,3′H-[4,4′-biinden]-1-yl]pyrrolidine-2-carboxamide]
IC50 [1]: 10 to 100 nM | IC50 [2]: 10 to 100 nM | IC50 [3]: 1 to 10 nM

CN[C@@H](C)C(=O)N[C@H](C(=O)N1CCC[C@H]1C(=O)N[C@@H]1CCCc2c(OCCOCCOc3cccc4c3CCC[C@H]4NC(=O)[C@@H]3CCCN3C(=O)[C@@H](NC(=O)[C@H](C)NC)C3CCOCC3)cccc21)C1CCOCC1 [Compound II-B, (2S)-1-[(2S)-2-[(2S)-2-(Methylamino)propanamido]-2-(oxan-4-yl)acetyl]-N-[(1R)-5-[2-(2-{[(5R)-5-[(2S)-1-[(2S)-2-[(2S)-2-(methylamino)propanamido]-2-(oxan-4-yl)acetyl]pyrrolidine-2-amido]-5,6,7,8-tetrahydronaphthalen-1-yl]oxy}ethoxy)ethoxy]-1,2,3,4-tetrahydronaphthalen-1-yl]pyrrolidine-2-carboxamide]
IC50 [1]: 10 to 100 nM | IC50 [2]: 10 to 100 nM | IC50 [3]: 1 to 10 nM

CC[C@H](NC(=O)[C@H](C)NC)C(=O)N1CCC[C@H]1C(=O)N[C@@H]1CCOc2c(-c3cccc4c3OCC[C@H]4NC(=O)[C@@H]3CCCN3C(=O)[C@H](CC)NC(=O)[C@H](C)NC)cccc21 [Compound V-B, (2S)-1-[(2S)-2-[(2S)-2-(methylamino)propanamido]butanoyl]-N-[1(4R)-8-[(4R)-4-[(2S)-1-[(2S)-2-[(2S)-2-(methylamino)propanamido]butanoyl]pyrrolidine-2-amido]-3,4-dihydro-2H-1-benzopyran-8-yl]-3,4-dihydro-2H-1-benzopyran-4-yl]pyrrolidine-2-carboxamide]
IC50 [1]: 10 to 100 nM | IC50 [2]: 10 to 100 nM | IC50 [3]: 1 to 10 nM

CN[C@@H](C)C(=O)N[C@H](C(=O)N1CCC[C@H]1C(=O)N[C@@H]1CCCc2c(OCCc3ccc(CCOc4cccc5c4CCC[C@H]5NC(=O)[C@@H]4CCCN4C(=O)[C@@H](NC(=O)[C@H](C)NC)C4CCCCC4)cc3)cccc21)C1CCCCC1 [Compound I, (2S)-1-[(2S)-2-Cyclohexyl-2-[(2S)-2-(methylamino)propanamido]acetyl]-N-[(1R)-5-[2-[4-(2-[[(5R)-5-[(2S)-1-[(2S)-2-cyclohexyl-2-[(2S)-2-(methylamino)propanamido]acetyl]pyrrolidine-2-amido]-5,6,7,8-tetrahydronaphthalen-1-yl]oxy]ethyl)phenyl]ethoxy]-1,2,3,4-tetrahydmnaphthalen-1-yl]pyrrolidine-2-carboxamide]
IC50 [1]: 10 to 100 nM | IC50 [2]: 10 to 100 nM | IC50 [3]: 1 to 10 nM

CN[C@@H](C)C(=O)N[C@H](C(=O)N1CCC[C@H]1C(=O)N[C@@H]1CCCc2c(-c3ccc(-c4cccc5c4CCC[C@H]5NC(=O)[C@@H]4CCCN4C(=O)[C@@H](NC(=O)[C@H](C)NC)C(C)(C)C)cc3)cccc21)C(C)(C)C [Compound III-J, (2S)-1-[(2S)-3,3-dimethyl-2-[(2S)-2-(methylamino)propanamido]butanoyl]-N-[(1R)-5-[4-[(5R)-5-[(2S)-[-(2S)-3,3-dimethyl-2-[(2S)-2-(methylamino)propanamido]butanoyl]pyrrolidine-2-amido]-5,6,7,8-tetrahydronaphthalen-1-yl]phenyl]-1,2,3,4-tetrahydronaphthalen-1-yl]pyrrolidine-2-carboxamide]
IC50 [1]: 1 to 10 nM | IC50 [2]: 10 to 100 nM | IC50 [3]: 1 to 10 nM

CN[C@@H](C)C(=O)N[C@H](C(=O)N1CCC[C@H]1C(=O)N[C@@H]1CCOc2c(-c3cccc4c3OCC[C@H]4NC(=O)[C@@H]3CCCN3C(=O)[C@@H](NC(=O)[C@H](C)NC)C3CCOCC3)cccc21)C1CCOCC1 [Compound V-Q, (S)-1-((S)-2-((S)-2-(methylamino)propanamido)-2-(tetrahydro-2H-pyran-4-yl)acetyl)-N-((4R,4′R)-4′-((S)-1-((S)-2-((S)-2-(methylamino)propanamido)-2-(tetrahydro-2H-pyran-4-yl)acetyl)pyrrolidine-2-carboxamido)-[8,8′-bichroman]-4-yl)pyrrolidine-2-carboxamide]
IC50 [1]: 10 to 100 nM | IC50 [2]: 10 to 100 nM | IC50 [3]: 1 to 10 nM

CN[C@@H](C)C(=O)N[C@H](C(=O)N1CCC[C@H]1C(=O)N[C@@H]1CCc2c(-c3cccc4c3CC[C@H]4NC(=O)[C@@H]3CCCN3C(=O)[C@@H](NC(=O)[C@H](C)NC)C3CCOCC3)cccc21)C1CCOCC1 [Compound V-R, (S)-1-((S)-2-((S)-2-(methylamino)propanamido)-2-(tetrahydro-2H-pyran-4-yl)acetyl)-N-((1R,1′R)-1′-((S)-1-((S)-2-((S)-2-(methylamino)propanamido)-2-(tetrahydro-2H-pyran-4-yl)acetyl)pyrrolidine-2-carboxamido)-2,2′,3,3′-tetrahydro-1H,1′H-[4,4′-biinden]-1-yl)pyrrolidine-2-carboxamide]
IC50 [1]: 10 to 100 nM | IC50 [2]: 10 to 100 nM | IC50 [3]: 1 to 10 nM
